For one assay, the system named is HIV, HTLV III; RF strain. The experiment in a line: HIV antigen capture ELISA, virus growth in CD4+ T-lymphocytes. In kind it is cell-based. As to conditions: C8166 CD4+ T-cell line; for IC50: Human immunodeficiency virus 1, T-lymphocyte, supernatant antigen at 72 hours post-infection. As to the method:
The Enzyme Linked Immuno-absorbent Assay (ELISA) was used to test compounds I and II for anti-HIV activity by measuring virus growth in CD4^+ T-lymphocytes by detecting antigen released into the tissue culture supernatant of infected cells.
High titre virus stocks [HIV, HTLV III; RF strain] were grown in H9 cells in RPMI 1640 (Flow Laboratories) supplemented with 10% fetal calf serum, penicillin (100 IU/ml) and streptomycin (100 ug/ml). Cell debris was removed by low speed centrifugation and the supernatant stored at -70° C. until required. The host cell line used in the antiviral assays was the C8166 CD4^+ T-cell line which is particularly susceptible to infection with HIV. Cells were incubated with 10 TCID50, HIV/HTLV III(RF) at 37° C. for 90 minutes and then washed three times with PBSA. Cell aliquots (2×10^5) were resuspended in 1.5 ml growth medium in 6 ml tubes and incubated at 37° C. At 72 hours post-infection, the supernatants from the cell cultures were assayed immediately for HIV antigen.
The antigen capture ELISA used was purchased from Coulter (Luton, UK). The assays were carried out on supernatants taken from infected cell cultures using the steps described by the manufacturers. In each assay the corresponding positive and negative internal controls were included together with a supernatant control taken from uninfected cells. The plates were read using the appropriate spectrophotometric detection system.
A general note: An ELISA detects its analyte on a solid surface through an enzyme-linked reagent.

Another assay deals with HIV (HTLV-III). Put plainly: HIV-cytopathic Effect Inhibition Assay. The format is cell-based. As to conditions: survival of drug treated target cells with HIV (HTLV-III), seven days; FIGS. 1 to 3. The protocol:
Compounds I and II were tested in the HIV-cytopathic Effect Inhibition Assay as described in the publication by Mitsuya, et al. Proc. Nat'l Acad. Sci., USA, 83:1911 (1986), which publication is hereby incorporated by reference.
The cells were exposed to either Compound I, Compound II, or AZT, and the survival of drug treated target cells determined seven days thereafter.
The black bars represent survival of compound treated target cells when HIV (HTLV-III) is added. The light bars represent survival of compound treated target cells in the absence of virus.

Molecules are shown by their SMILES.

Turning to `Nc1ncnc2c1ncn2[C@H]1CC[C@@H](CO)O1` [ddA, 2',3'-dideoxyadenosine, reference compound], in the assay with HIV, HTLV III; RF strain, the IC50 (commonly the concentration that inhibits the measured activity by half) lay within 1 to 3 µM. As to `Nc1ncnc2c1ncn2[C@H]1CO[C@@H](CO)C1` [Compound I, (2R-cis)-4-(6-Amino-9H-purin-9-yl)tetrahydro-2-furanmethanol], the “anti-HIV activity relative to known antiretroviral therapeutics (AZT)” value in the assay on HIV (HTLV-III) is recorded as “equivalent to that of antiretroviral therapeutics known to have in vivo activity against HIV, most particularly AZT”. For the same compound, in the assay on HIV, HTLV III; RF strain (antigen ELISA), the “antiviral activity in this test system, compared to ddA” value is reported as “comparable to that of a known anti-HIV agent ddA”. The IC50 in the assay on HIV, HTLV III; RF strain lay within 3 to 10 µM. Take `Nc1nc2c(ncn2[C@H]2CO[C@@H](CO)C2)c(=O)[nH]1` [Compound II]: the “anti-HIV activity relative to known antiretroviral therapeutics (AZT)” value in the assay with HIV (HTLV-III) is “equivalent to that of antiretroviral therapeutics known to have in vivo activity against HIV, most particularly AZT”.

The values are drawn from patent US5126347A, “Isomeric dideoxynuclesides” (Hoffmann-La Roche Inc., priority 1989, dated 1992).
